In article PMC12892976, “Alkylation-based optimization of antifungal FPPS inhibitors yields a potent, broad-spectrum lipophilic zoledronate derivative” (mBio, 2025):
Converted amounts (≈) assume the structure as drawn.

What was measured:
Saccharomyces cerevisiae [1] = assay: MIC/MFC broth microdilution (CLSI); type: cell-based; conditions: Saccharomyces cerevisiae S288c
Method: (§1) Antifungal susceptibility was determined by broth microdilution according to the CLSI guidelines described in M27-Ed4 ([16]). […] MFC was determined by back-plating drug-treated cultures from MIC broths onto SDA plates. The MFC was defined as the lowest concentration from which no colonies could be cultured.

Candida albicans [2] = assay: MIC/MFC broth microdilution (CLSI); type: cell-based; conditions: Candida albicans SC5314
Method: as §1

Aspergillus niger = assay: MIC broth microdilution (CLSI); type: cell-based; conditions: Aspergillus niger 111
Method: (§2) Antifungal susceptibility was determined by broth microdilution according to the CLSI guidelines described in M27-Ed4 ([16]).

Nannizzia gypsea = assay: MIC broth microdilution (CLSI); type: cell-based; conditions: Nannizzia gypsea R-131
Method: as §2

[3] = tested on: Cryptococcus deuterogattii; assay: checkerboard drug interaction (FICI, MICc); type: cell-based;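 note: simplified diagonal checkerboard screen pairing antifungal drugs with FPPS inhibitors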
Method: (§3) Drug interactions between antifungals and FPPS inhibitors were investigated using a simplified checkerboard diagonal screening method ([45]). […] FICIs were determined according to the Loewe additivity model ([17]).

Cryptococcus neoformans [4] = assay: checkerboard drug interaction (FICI, MICc); type: cell-based;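 note: antifungal plus FPPS inhibitor pairs tested against Cryptococcus neoformans by simplified diagonal checkerboard screening, FICI computed under the Loewe additivity model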
Method: as §3

Saccharomyces cerevisiae [5] = assay: checkerboard drug interaction (FICI, MICc); type: cell-based;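 note: simplified diagonal checkerboard screen pairing antifungals with FPPS inhibitors, FICI calculated under the Loewe additivity model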
Method: as §3

Candida glabrata [6] = assay: checkerboard drug interaction (FICI, MICc); type: cell-based;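 note: simplified diagonal checkerboard screen pairing antifungals with FPPS inhibitors, FICI calculated under the Loewe additivity model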
Method: as §3

Candida albicans [7] = assay: checkerboard drug interaction (FICI, MICc); type: cell-based;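 note: antifungal plus FPPS inhibitor combinations on Candida albicans tested by a simplified diagonal checkerboard screen, with FICI calculated under the Loewe additivity model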
Method: as §3

Candida tropicalis = assay: checkerboard drug interaction (FICI, MICc); type: cell-based;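 note: simplified diagonal checkerboard screen of antifungal plus FPPS inhibitor combinations, with FICI computed by the Loewe additivity model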
Method: as §3

Aspergillus flavus [8] = assay: checkerboard drug interaction (FICI, MICc); type: cell-based;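 note: simplified diagonal checkerboard screen pairing azole antifungals with FPPS inhibitors, FICI calculated under the Loewe additivity model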
Method: as §3

Aspergillus fumigatus [9] = assay: checkerboard drug interaction (FICI, MICc); type: cell-based;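 note: simplified diagonal checkerboard screen pairing antifungals with FPPS inhibitors against Aspergillus fumigatus, with FICI calculated under the Loewe additivity model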
Method: as §3

Trichophyton rubrum [10] = assay: checkerboard drug interaction (FICI, MICc); type: cell-based;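 note: simplified diagonal checkerboard screen pairing azole antifungals with FPPS inhibitors, FICI calculated under the Loewe additivity model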
Method: as §3

[11] = tested on: Cryptococcus deuterogattii; assay: MIC/MFC broth microdilution (CLSI); conditions: for MIC / MEC: Cryptococcus deuterogattii R265;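 for all read-outs here: broth microdilution per CLSI M27-Ed4. MFC is the lowest concentration yielding no colonies when MIC broths are subcultured onto SDA plates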
Method: as §1

Cryptococcus neoformans [12] = assay: MIC/MFC broth microdilution (CLSI); conditions: for MIC / MEC: Cryptococcus neoformans H99;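 for all read-outs here: susceptibility testing followed the CLSI M27-Ed4 broth microdilution document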
Method: as §1

Candida glabrata [13] = assay: MIC/MFC broth microdilution (CLSI); conditions: for MIC / MEC: Candida glabrata CBS138 (ATCC 2001);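 for all read-outs here: broth microdilution following CLSI M27-Ed4, MFC taken as the lowest drug level yielding no growth once MIC wells were subcultured on SDA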
Method: as §1

Aspergillus flavus [14] = assay: MIC/MFC broth microdilution (CLSI); conditions: ATCC204304
Method: as §1

Aspergillus fumigatus [15] = assay: MIC/MFC broth microdilution (CLSI); conditions: ATCC204305
Method: as §1

Trichophyton rubrum [16] = assay: MIC/MFC broth microdilution (CLSI); conditions: for MIC / MEC: Trichophyton rubrum R-218
Method: as §1

eight fungal species = assay: MIC/MFC summary across the eight fungal species of Table 1; type: cell-based
Method: The antifungal activity of these compounds was evaluated according to CLSI guidelines ([16]).

## CC[C@H](C)C[C@H](C)CCCCCCCCC(=O)N[C@H]1C[C@@H](O)[C@@H](NCCN)NC(=O)[C@@H]2[C@@H](O)CCN2C(=O)[C@H]([C@H](O)CCN)NC(=O)[C@H]([C@H](O)[C@@H](O)c2ccc(O)cc2)NC(=O)[C@@H]2C[C@@H](O)CN2C(=O)[C@H]([C@@H](C)O)NC1=O [CAS, caspofungin]
Saccharomyces cerevisiae [1]
  MIC / MEC: 0.5 µg/mL (≈ 0.457 µM)
Candida albicans [2]
  MIC / MEC: 0.13 µg/mL (≈ 0.119 µM)
Aspergillus niger
  MIC / MEC: 4 µg/mL (≈ 3.66 µM)
Nannizzia gypsea
  MIC / MEC: 1 µg/mL (≈ 0.915 µM)
[3]; in combination with 10-ZOL
  antifungal MICc: 4
[3]; in combination with ZOL
  antifungal MICc: 16
Cryptococcus neoformans [4]; in combination with 10-ZOL
  antifungal MICc: 2
Cryptococcus neoformans [4]; in combination with ZOL
  antifungal MICc: 16
Saccharomyces cerevisiae [5]; in combination with 10-ZOL
  antifungal MICc: 0.125
Saccharomyces cerevisiae [5]; in combination with ZOL
  antifungal MICc: 0.5
Candida glabrata [6]; in combination with 10-ZOL
  antifungal MICc: 0.125
Candida glabrata [6]; in combination with ZOL
  antifungal MICc: 0.25
Candida albicans [7]; in combination with 10-ZOL
  antifungal MICc: 0.063
Candida albicans [7]; in combination with ZOL
  antifungal MICc: 0.25
Candida tropicalis; in combination with 10-ZOL
  antifungal MICc: 0.25
Candida tropicalis; in combination with ZOL
  antifungal MICc: 0.02
Aspergillus flavus [8]; in combination with 10-ZOL
  antifungal MICc: 2
Aspergillus flavus [8]; in combination with ZOL
  antifungal MICc: 4
Aspergillus fumigatus [9]; in combination with 10-ZOL
  antifungal MICc: 8
Aspergillus fumigatus [9]; in combination with ZOL
  antifungal MICc: 8
Trichophyton rubrum [10]; in combination with 10-ZOL
  antifungal MICc: 0.25
Trichophyton rubrum [10]; in combination with ZOL
  antifungal MICc: 0.063
[11]
  MIC / MEC: 16 µg/mL (≈ 14.6 µM)
Cryptococcus neoformans [12]
  MIC / MEC: 8 µg/mL (≈ 7.32 µM)
Candida glabrata [13]
  MIC / MEC: 0.13 µg/mL (≈ 0.119 µM)
Aspergillus flavus [14]
  MIC / MEC: 8 µg/mL (≈ 7.32 µM)
Aspergillus fumigatus [15]
  MIC / MEC: 16 µg/mL (≈ 14.6 µM)
Trichophyton rubrum [16]
  MIC / MEC: 0.25 µg/mL (≈ 0.229 µM)

## CCC(C)n1ncn(-c2ccc(N3CCN(c4ccc(OCC5COC(Cn6cncn6)(c6ccc(Cl)cc6Cl)O5)cc4)CC3)cc2)c1=O (stereo not drawn) [ITR, itraconazole]
Saccharomyces cerevisiae [1]
  MFC: 1 µg/mL (≈ 1.42 µM)
  MIC: 0.25 µg/mL (≈ 0.354 µM)
  MIC / MEC: 0.25 µg/mL (≈ 0.354 µM)
Candida albicans [2]
  MFC: 2 µg/mL (≈ 2.83 µM)
  MIC: 0.25 µg/mL (≈ 0.354 µM)
  MIC / MEC: 0.25 µg/mL (≈ 0.354 µM)
Aspergillus niger
  MIC / MEC: 2 µg/mL (≈ 2.83 µM)
Nannizzia gypsea
  MIC / MEC: 2 µg/mL (≈ 2.83 µM)
[3]; in combination with 10-ZOL
  antifungal MICc: 0.125
[3]; in combination with ZOL
  antifungal MICc: 0.25
Cryptococcus neoformans [4]; in combination with 10-ZOL
  antifungal MICc: 0.063
Cryptococcus neoformans [4]; in combination with ZOL
  antifungal MICc: 0.125
Saccharomyces cerevisiae [5]; in combination with 10-ZOL
  antifungal MICc: 0.125
Saccharomyces cerevisiae [5]; in combination with ZOL
  antifungal MICc: 0.063
Candida glabrata [6]; in combination with 10-ZOL
  antifungal MICc: 0.031
Candida glabrata [6]; in combination with ZOL
  antifungal MICc: 0.016
Candida albicans [7]; in combination with 10-ZOL
  antifungal MICc: 0.25
Candida albicans [7]; in combination with ZOL
  antifungal MICc: 0.25
Candida tropicalis; in combination with 10-ZOL
  antifungal MICc: 0.125
Candida tropicalis; in combination with ZOL
  antifungal MICc: 0.062
Aspergillus flavus [8]; in combination with 10-ZOL
  antifungal MICc: 0.5
Aspergillus flavus [8]; in combination with ZOL
  antifungal MICc: 0.5
Aspergillus fumigatus [9]; in combination with 10-ZOL
  antifungal MICc: 0.063
Aspergillus fumigatus [9]; in combination with ZOL
  antifungal MICc: 0.063
Trichophyton rubrum [10]; in combination with 10-ZOL
  antifungal MICc: 1
Trichophyton rubrum [10]; in combination with ZOL
  antifungal MICc: 2
Eight fungal species; across eight species, read-out: Geometric mean MFC
  MFC: 3.7 µg/mL (≈ 5.24 µM)
Eight fungal species; read-out: Geometric mean MIC
  MIC: 0.5 µg/mL (≈ 0.709 µM)
[11]; Cryptococcus deuterogattii
  MFC: 4 µg/mL (≈ 5.67 µM)
  MIC: 1 µg/mL (≈ 1.42 µM)
[11]
  MIC / MEC: 1 µg/mL (≈ 1.42 µM)
Cryptococcus neoformans [12]; Cryptococcus neoformans
  MFC: 4 µg/mL (≈ 5.67 µM)
  MIC: 0.5 µg/mL (≈ 0.709 µM)
Cryptococcus neoformans [12]
  MIC / MEC: 0.5 µg/mL (≈ 0.709 µM)
Candida glabrata [13]
  MIC / MEC: 0.13 µg/mL (≈ 0.184 µM)
Candida glabrata [13]; Nakaseomyces glabratus, CBS138
  MFC: 4 µg/mL (≈ 5.67 µM)
  MIC: 0.125 µg/mL (≈ 0.177 µM)
Aspergillus flavus [14]
  MFC: 2 µg/mL (≈ 2.83 µM)
  MIC: 0.5 µg/mL (≈ 0.709 µM)
  MIC / MEC: 0.5 µg/mL (≈ 0.709 µM)
Aspergillus fumigatus [15]
  MFC: 4 µg/mL (≈ 5.67 µM)
  MIC: 0.125 µg/mL (≈ 0.177 µM)
  MIC / MEC: 0.13 µg/mL (≈ 0.184 µM)
Trichophyton rubrum [16]; Trichophyton rubrum
  MFC: > 16 µg/mL
  MIC: 8 µg/mL (≈ 11.3 µM)
Trichophyton rubrum [16]
  MIC / MEC: 8 µg/mL (≈ 11.3 µM)

## C[C@@H](c1ncncc1F)[C@](O)(Cn1cncn1)c1ccc(F)cc1F [VOR]
Saccharomyces cerevisiae [1]
  MIC / MEC: 0.5 µg/mL (≈ 1.43 µM)
Candida albicans [2]
  MIC / MEC: 0.13 µg/mL (≈ 0.372 µM)
Aspergillus niger
  MIC / MEC: 1 µg/mL (≈ 2.86 µM)
Nannizzia gypsea
  MIC / MEC: 0.25 µg/mL (≈ 0.716 µM)
[3]; in combination with 10-ZOL
  antifungal MICc: 0.125
[3]; in combination with ZOL
  antifungal MICc: 0.063
Cryptococcus neoformans [4]; in combination with 10-ZOL
  antifungal MICc: 0.063
Cryptococcus neoformans [4]; in combination with ZOL
  antifungal MICc: 0.0625
Saccharomyces cerevisiae [5]; in combination with 10-ZOL
  antifungal MICc: 0.25
Saccharomyces cerevisiae [5]; in combination with ZOL
  antifungal MICc: 0.25
Candida glabrata [6]; in combination with 10-ZOL
  antifungal MICc: 0.25
Candida glabrata [6]; in combination with ZOL
  antifungal MICc: 0.0625
Candida albicans [7]; in combination with 10-ZOL
  antifungal MICc: 0.063
Candida albicans [7]; in combination with ZOL
  antifungal MICc: 0.125
Candida tropicalis; in combination with 10-ZOL
  antifungal MICc: 0.032
Candida tropicalis; in combination with ZOL
  antifungal MICc: 0.0625
Aspergillus flavus [8]; in combination with 10-ZOL
  antifungal MICc: 0.06
Aspergillus flavus [8]; in combination with ZOL
  antifungal MICc: 0.25
Aspergillus fumigatus [9]; in combination with 10-ZOL
  antifungal MICc: 0.25
Aspergillus fumigatus [9]; in combination with ZOL
  antifungal MICc: 2
Trichophyton rubrum [10]; in combination with 10-ZOL
  antifungal MICc: 0.25
Trichophyton rubrum [10]; in combination with ZOL
  antifungal MICc: 0.25
[11]
  MIC / MEC: 0.25 µg/mL (≈ 0.716 µM)
Cryptococcus neoformans [12]
  MIC / MEC: 0.13 µg/mL (≈ 0.372 µM)
Candida glabrata [13]
  MIC / MEC: 0.25 µg/mL (≈ 0.716 µM)
Aspergillus flavus [14]
  MIC / MEC: 0.5 µg/mL (≈ 1.43 µM)
Aspergillus fumigatus [15]
  MIC / MEC: 0.5 µg/mL (≈ 1.43 µM)
Trichophyton rubrum [16]
  MIC / MEC: 1 µg/mL (≈ 2.86 µM)
